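The concentration for 50% growth inhibition is given as GI50. Definition used: TGI = concentration required for complete inhibition of growth.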
Tests used:
Experiment in all cases: NCI-60 cell line screen, 384-well format
[1] = system: 786-0 renal
[2] = system: A498 renal
[3] = system: A549 NSCLC
[4] = system: ACHN renal
[5] = system: BT-549 breast
[6] = system: CAKI-1 renal
[7] = system: CCRF-CEM leukemia
[8] = system: COLO 205 colon
[9] = system: DU-145 prostate
[10] = system: EKVX NSCLC
[11] = system: HCC-2998 colon
[12] = system: HCT-15 colon
[13] = system: HL-60(TB) leukemia
[14] = system: HOP-62 NSCLC
[15] = system: HT29 colon
[16] = system: IGROV1 ovarian
[17] = system: K-562 leukemia
[18] = system: KM12 colon
[19] = system: LOX IMVI melanoma
[20] = system: M14 melanoma
[21] = system: MALME-3M melanoma
[22] = system: MCF7 breast
[23] = system: MDA-MB-231 breast
[24] = system: MDA-MB-435 melanoma
[25] = system: MDA-MB-468 breast
[26] = system: MOLT-4 leukemia
[27] = system: NCI-H226 lung
[28] = system: NCI-H23 lung
[29] = system: NCI-H322M lung
[30] = system: NCI-H460 NSCLC
[31] = system: NCI-H522 lung
[32] = system: NCI/ADR-RES ovarian
[33] = system: OVCAR-3 ovarian
[34] = system: OVCAR-4 ovarian
[35] = system: OVCAR-5 ovarian
[36] = system: OVCAR-8 ovarian
[37] = system: PC-3 prostate
[38] = system: RPMI-8226 leukemia
[39] = system: RXF 393 renal
[40] = system: SF-268 CNS
[41] = system: SF-295 CNS
[42] = system: SF-539 CNS
[43] = system: SK-MEL-28 melanoma
[44] = system: SK-MEL-5 melanoma
[45] = system: SK-OV-3 ovarian
[46] = system: SN12C renal
[47] = system: SNB-19 CNS
[48] = system: SNB-75 CNS
[49] = system: SR leukemia
[50] = system: SW-620 colon
[51] = system: T-47D breast
[52] = system: TK-10 renal
[53] = system: UACC-257 melanoma
[54] = system: UACC-62 melanoma
[55] = system: UO-31 renal

Compound: Cc1nc2ccc(CN(C)c3ccc(C(=O)N[C@@H](CCC(=O)O)C(=O)O)s3)cc2c(=O)[nH]1
- GI50 [1]: < 10 nM
- TGI [1]: > 100000 nM
- GI50 [2]: < 10 nM
- TGI [2]: > 100000 nM
- GI50 [3]: < 10 nM
- TGI [3]: > 100000 nM
- GI50 [4]: < 10 nM
- TGI [4]: > 100000 nM
- GI50 [5]: < 10 nM
- TGI [5]: > 100000 nM
- GI50 [6]: < 10 nM
- TGI [6]: > 100000 nM
- GI50 [7]: < 10 nM
- TGI [7]: < 10 nM
- GI50 [8]: < 10 nM
- TGI [8]: > 100000 nM
- GI50 [9]: < 10 nM
- TGI [9]: > 100000 nM
- GI50 [10]: > 100000 nM
- TGI [10]: > 100000 nM
- GI50 [11]: < 10 nM
- TGI [11]: > 100000 nM
- GI50 [12]: < 10 nM
- TGI [12]: > 100000 nM
- GI50 [13]: < 10 nM
- TGI [13]: < 10 nM
- GI50 [14]: < 10 nM
- TGI [14]: 19.5 nM
- GI50 [15]: < 10 nM
- TGI [15]: > 100000 nM
- GI50 [16]: 46.2 nM
- TGI [16]: > 100000 nM
- GI50 [17]: < 10 nM
- TGI [17]: > 100000 nM
- GI50 [18]: > 100000 nM
- TGI [18]: > 100000 nM
- GI50 [19]: < 10 nM
- TGI [19]: > 100000 nM
- GI50 [20]: < 10 nM
- TGI [20]: < 10 nM
- GI50 [21]: 17.9 nM
- TGI [21]: > 100000 nM
- GI50 [22]: < 10 nM
- TGI [22]: > 100000 nM
- GI50 [23]: 8370 nM
- TGI [23]: > 100000 nM
- GI50 [24]: < 10 nM
- TGI [24]: > 100000 nM
- GI50 [25]: > 100000 nM
- TGI [25]: > 100000 nM
- GI50 [26]: < 10 nM
- TGI [26]: < 10 nM
- GI50 [27]: 55500 nM
- TGI [27]: > 100000 nM
- GI50 [28]: 490 nM
- TGI [28]: > 100000 nM
- GI50 [29]: > 100000 nM
- TGI [29]: > 100000 nM
- GI50 [30]: < 10 nM
- TGI [30]: > 100000 nM
- GI50 [31]: < 10 nM
- TGI [31]: < 10 nM
- GI50 [32]: < 10 nM
- TGI [32]: < 10 nM
- GI50 [33]: < 10 nM
- TGI [33]: > 100000 nM
- GI50 [34]: > 100000 nM
- TGI [34]: > 100000 nM
- GI50 [35]: < 10 nM
- TGI [35]: > 100000 nM
- GI50 [36]: < 10 nM
- TGI [36]: > 100000 nM
- GI50 [37]: < 10 nM
- TGI [37]: > 100000 nM
- GI50 [38]: < 10 nM
- TGI [38]: < 10 nM
- GI50 [39]: 11.9 nM
- TGI [39]: > 100000 nM
- GI50 [40]: < 10 nM
- TGI [40]: < 10 nM
- GI50 [41]: < 10 nM
- TGI [41]: < 10 nM
- GI50 [42]: < 10 nM
- TGI [42]: > 100000 nM
- GI50 [43]: < 10 nM
- TGI [43]: > 100000 nM
- GI50 [44]: > 100000 nM
- TGI [44]: > 100000 nM
- GI50 [45]: < 10 nM
- TGI [45]: > 100000 nM
- GI50 [46]: < 10 nM
- TGI [46]: < 10 nM
- GI50 [47]: < 10 nM
- TGI [47]: 98.7 nM
- GI50 [48]: < 10 nM
- TGI [48]: > 100000 nM
- GI50 [49]: < 10 nM
- TGI [49]: < 10 nM
- GI50 [50]: < 10 nM
- TGI [50]: > 100000 nM
- GI50 [51]: < 10 nM
- TGI [51]: > 100000 nM
- GI50 [52]: < 10 nM
- TGI [52]: > 100000 nM
- GI50 [53]: 6070 nM
- TGI [53]: > 100000 nM
- GI50 [54]: 23.3 nM
- TGI [54]: > 100000 nM
- GI50 [55]: < 10 nM
- TGI [55]: > 100000 nM

Reference: PubChem BioAssay (NCI)
